Laboratory results taken from publication PMC7180948, “New Insights into 4-Anilinoquinazolines as Inhibitors of Cardiac Troponin I–Interacting Kinase (TNNi3K)” (Molecules, 2020).

Experiments:
Assay in all cases: biochemical
[1] = biological target: ACVR1B (Homo sapiens, UniProt P36896); parameters: KINOMEscan competition binding panel (Eurofins DiscoverX), single concentration, % inhibition; conditions: read-out: 7 at 1 µM % inhibition
How it was run: (§1)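 Values come from single-concentration (1 µM) profiling in the Eurofins DiscoverX KINOMEscan competition-binding platform, which covers over 400 kinases.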

[2] = biological target: BMX (Homo sapiens, UniProt P51813); parameters: KINOMEscan competition binding panel (Eurofins DiscoverX), single concentration, % inhibition; conditions: read-out: 7 at 1 µM % inhibition
How it was run: as §1

[3] = biological target: KIT-autoinhibited (Homo sapiens, UniProt P10721); parameters: KINOMEscan competition binding panel (Eurofins DiscoverX), single concentration, % inhibition; conditions: read-out: 7 at 1 µM % inhibition
How it was run: as §1

[4] = biological target: T1, MLCK (Homo sapiens, UniProt Q32MK0); parameters: KINOMEscan competition binding panel (Eurofins DiscoverX), single concentration, % inhibition; conditions: read-out: 7 at 1 µM % inhibition
T1 construct: gene MYLK3
How it was run: as §1

[5] = biological target: PIK3CA(I800L) (Homo sapiens, UniProt P42336, I800L); parameters: KINOMEscan competition binding panel (Eurofins DiscoverX), single concentration, % inhibition; conditions: read-out: 7 at 1 µM % inhibition
How it was run: as §1

[6] = biological target: T2, PYK2 (Homo sapiens, UniProt Q14289); parameters: KINOMEscan competition binding panel (Eurofins DiscoverX), single concentration, % inhibition; conditions: read-out: 7 at 1 µM % inhibition
T2 construct: gene PTK2B
How it was run: as §1

[7] = biological target: T3, RSK2(Kin.Dom.2-C-terminal) (Homo sapiens, UniProt P51812); parameters: KINOMEscan competition binding panel (Eurofins DiscoverX), single concentration, % inhibition; conditions: read-out: 7 at 1 µM % inhibition
T3 construct: gene RPS6KA3; Kin.Dom.2-C-terminal
How it was run: as §1

[8] = biological target: SRC (Homo sapiens, UniProt P12931); parameters: KINOMEscan competition binding panel (Eurofins DiscoverX), single concentration, % inhibition; conditions: read-out: 7 at 1 µM % inhibition
How it was run: as §1

[9] = biological target: TYRO3 (Homo sapiens, UniProt Q06418); parameters: KINOMEscan competition binding panel (Eurofins DiscoverX), single concentration, % inhibition; conditions: read-out: 7 at 1 µM % inhibition
How it was run: as §1

[10] = biological target: T4, p38-alpha (Homo sapiens, UniProt Q16539); parameters: KINOMEscan competition binding panel (Eurofins DiscoverX), single concentration, % inhibition; conditions: read-out: 7 at 1 µM % inhibition
T4 construct: gene MAPK14
How it was run: as §1

[11] = biological target: CASK (Homo sapiens, UniProt O14936); parameters: KINOMEscan competition binding panel (Eurofins DiscoverX), single concentration, percent inhibition; conditions: read-out: 15 at 1 µM % inhibition
Experimental: (§2) KinomeScan® Assay on 7 and 15 was performed as previously described by EuroFins DiscoverX [24]. GSK114 (7) and 15 were submitted for a KINOMEscan® assay to explore the selectivity profile across >400 human kinases at a compound concentration of 1 µM. […] GSK114 (7) is a narrow-spectrum TNNi3K inhibitor but has some potent off-targets including GAK which has been previously reported for this chemotype. […] If utilized together this set of compounds could be useful to investigate TNNi3K biology.

[12] = biological target: CLK3 (Homo sapiens, UniProt P49761); parameters: KINOMEscan competition binding panel (Eurofins DiscoverX), single concentration, percent inhibition; conditions: read-out: 15 at 1 µM % inhibition
Experimental: as §2

[13] = biological target: CSNK1A1L (Homo sapiens, UniProt Q8N752); parameters: KINOMEscan competition binding panel (Eurofins DiscoverX), single concentration, percent inhibition; conditions: read-out: 15 at 1 µM % inhibition
Experimental: as §2

[14] = biological target: CSNK1E (Homo sapiens, UniProt P49674); parameters: KINOMEscan competition binding panel (Eurofins DiscoverX), single concentration, percent inhibition; conditions: read-out: 15 at 1 µM % inhibition
Experimental: as §2

[15] = biological target: EGFR(L747-T751del,Sins) (Homo sapiens, UniProt P00533, DEL747-750/T751S); parameters: KINOMEscan competition binding panel (Eurofins DiscoverX), single concentration, percent inhibition; conditions: read-out: 15 at 1 µM % inhibition
Experimental: as §2

[16] = biological target: FLT3(D835Y) (Homo sapiens, UniProt P36888, D835Y); parameters: KINOMEscan competition binding panel (Eurofins DiscoverX), single concentration, percent inhibition; conditions: read-out: 15 at 1 µM % inhibition
Experimental: as §2

[17] = biological target: FLT4 (Homo sapiens, UniProt P35916); parameters: KINOMEscan competition binding panel (Eurofins DiscoverX), single concentration, percent inhibition; conditions: read-out: 15 at 1 µM % inhibition
Experimental: as §2

[18] = biological target: LATS2 (Homo sapiens, UniProt Q9NRM7); parameters: KINOMEscan competition binding panel (Eurofins DiscoverX), single concentration, percent inhibition; conditions: read-out: 15 at 1 µM % inhibition
Experimental: as §2

[19] = biological target: T5, MEK1 (Homo sapiens, UniProt Q02750); parameters: KINOMEscan competition binding panel (Eurofins DiscoverX), single concentration, percent inhibition; conditions: read-out: 15 at 1 µM % inhibition
T5 construct: gene MAP2K1
Experimental: as §2

[20] = biological target: MET(Y1235D) (Homo sapiens, UniProt P08581, Y1235D); parameters: KINOMEscan competition binding panel (Eurofins DiscoverX), single concentration, percent inhibition; conditions: read-out: 15 at 1 µM % inhibition
Experimental: as §2

[21] = biological target: MYO3B (Homo sapiens, UniProt Q8WXR4); parameters: KINOMEscan competition binding panel (Eurofins DiscoverX), single concentration, percent inhibition; conditions: read-out: 15 at 1 µM % inhibition
Experimental: as §2

[22] = biological target: PRKCI (Homo sapiens, UniProt P41743); parameters: KINOMEscan competition binding panel (Eurofins DiscoverX), single concentration, percent inhibition; conditions: read-out: 15 at 1 µM % inhibition
Experimental: as §2

[23] = biological target: RIPK2 (Homo sapiens, UniProt O43353); parameters: KINOMEscan competition binding panel (Eurofins DiscoverX), single concentration, percent inhibition; conditions: read-out: 15 at 1 µM % inhibition
Experimental: as §2

[24] = biological target: T6, TRKB (Homo sapiens, UniProt Q16620); parameters: KINOMEscan competition binding panel (Eurofins DiscoverX), single concentration, percent inhibition; conditions: read-out: 15 at 1 µM % inhibition
T6 construct: gene NTRK2
Experimental: as §2

Sequence of SRC (P12931 whole entry): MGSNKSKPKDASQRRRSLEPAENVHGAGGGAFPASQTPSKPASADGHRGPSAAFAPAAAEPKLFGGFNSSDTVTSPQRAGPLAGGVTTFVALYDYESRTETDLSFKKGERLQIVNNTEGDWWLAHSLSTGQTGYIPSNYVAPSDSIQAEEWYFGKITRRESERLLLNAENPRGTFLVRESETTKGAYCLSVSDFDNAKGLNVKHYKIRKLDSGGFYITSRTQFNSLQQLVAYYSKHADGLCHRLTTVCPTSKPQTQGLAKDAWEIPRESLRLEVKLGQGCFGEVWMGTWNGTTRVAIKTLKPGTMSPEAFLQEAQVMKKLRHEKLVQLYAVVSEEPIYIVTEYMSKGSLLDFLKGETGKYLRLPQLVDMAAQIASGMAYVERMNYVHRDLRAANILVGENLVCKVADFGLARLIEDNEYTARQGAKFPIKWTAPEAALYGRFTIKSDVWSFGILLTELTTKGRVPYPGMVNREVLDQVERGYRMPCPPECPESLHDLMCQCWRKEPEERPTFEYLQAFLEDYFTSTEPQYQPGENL
Sequence of CSNK1A1L (Q8N752 whole entry): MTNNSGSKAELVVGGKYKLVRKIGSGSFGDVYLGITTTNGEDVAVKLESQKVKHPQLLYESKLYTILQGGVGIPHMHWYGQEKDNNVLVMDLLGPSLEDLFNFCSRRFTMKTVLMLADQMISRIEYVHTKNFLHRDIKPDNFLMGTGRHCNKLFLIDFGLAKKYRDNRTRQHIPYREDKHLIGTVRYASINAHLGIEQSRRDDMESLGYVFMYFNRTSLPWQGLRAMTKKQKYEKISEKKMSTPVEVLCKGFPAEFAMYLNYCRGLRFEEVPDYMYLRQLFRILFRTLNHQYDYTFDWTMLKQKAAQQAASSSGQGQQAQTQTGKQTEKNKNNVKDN
Sequence of ACVR1B (P36896 whole entry): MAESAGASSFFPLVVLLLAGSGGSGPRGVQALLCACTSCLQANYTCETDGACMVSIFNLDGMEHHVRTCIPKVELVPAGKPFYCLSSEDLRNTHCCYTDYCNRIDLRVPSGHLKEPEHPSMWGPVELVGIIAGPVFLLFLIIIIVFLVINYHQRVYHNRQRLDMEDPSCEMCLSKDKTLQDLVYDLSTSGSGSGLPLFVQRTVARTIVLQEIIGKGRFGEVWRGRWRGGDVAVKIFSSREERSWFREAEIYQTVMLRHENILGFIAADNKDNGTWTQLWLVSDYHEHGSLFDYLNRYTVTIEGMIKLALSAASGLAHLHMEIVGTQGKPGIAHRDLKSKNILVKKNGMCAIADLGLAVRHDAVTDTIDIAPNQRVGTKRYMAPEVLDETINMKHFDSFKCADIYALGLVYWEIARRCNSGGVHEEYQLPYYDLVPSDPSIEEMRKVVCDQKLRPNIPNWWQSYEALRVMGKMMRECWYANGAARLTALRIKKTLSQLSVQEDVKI
T6 sequence (Q16620 whole entry): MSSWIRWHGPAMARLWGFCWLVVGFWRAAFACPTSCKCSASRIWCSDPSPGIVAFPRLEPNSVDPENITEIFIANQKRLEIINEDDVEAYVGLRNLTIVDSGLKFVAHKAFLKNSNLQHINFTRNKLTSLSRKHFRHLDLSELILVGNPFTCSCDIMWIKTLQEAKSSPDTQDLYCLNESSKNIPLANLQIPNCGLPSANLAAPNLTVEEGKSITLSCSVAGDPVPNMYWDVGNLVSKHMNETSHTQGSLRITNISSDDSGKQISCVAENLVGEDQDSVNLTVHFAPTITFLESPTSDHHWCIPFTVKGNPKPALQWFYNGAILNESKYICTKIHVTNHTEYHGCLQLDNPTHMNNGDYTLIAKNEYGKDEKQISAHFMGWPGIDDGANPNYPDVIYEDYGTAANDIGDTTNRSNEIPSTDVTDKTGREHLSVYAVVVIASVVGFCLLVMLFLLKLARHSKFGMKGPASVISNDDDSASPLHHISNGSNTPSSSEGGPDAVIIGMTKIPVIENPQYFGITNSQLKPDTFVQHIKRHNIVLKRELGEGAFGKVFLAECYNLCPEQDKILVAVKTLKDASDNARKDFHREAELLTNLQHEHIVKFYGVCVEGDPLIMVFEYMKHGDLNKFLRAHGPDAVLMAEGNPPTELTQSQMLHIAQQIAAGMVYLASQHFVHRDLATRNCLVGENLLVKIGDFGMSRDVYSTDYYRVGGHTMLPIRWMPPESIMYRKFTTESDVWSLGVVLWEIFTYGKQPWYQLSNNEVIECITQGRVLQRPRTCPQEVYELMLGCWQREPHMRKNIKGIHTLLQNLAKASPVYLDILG
Sequence of BMX (P51813 whole entry): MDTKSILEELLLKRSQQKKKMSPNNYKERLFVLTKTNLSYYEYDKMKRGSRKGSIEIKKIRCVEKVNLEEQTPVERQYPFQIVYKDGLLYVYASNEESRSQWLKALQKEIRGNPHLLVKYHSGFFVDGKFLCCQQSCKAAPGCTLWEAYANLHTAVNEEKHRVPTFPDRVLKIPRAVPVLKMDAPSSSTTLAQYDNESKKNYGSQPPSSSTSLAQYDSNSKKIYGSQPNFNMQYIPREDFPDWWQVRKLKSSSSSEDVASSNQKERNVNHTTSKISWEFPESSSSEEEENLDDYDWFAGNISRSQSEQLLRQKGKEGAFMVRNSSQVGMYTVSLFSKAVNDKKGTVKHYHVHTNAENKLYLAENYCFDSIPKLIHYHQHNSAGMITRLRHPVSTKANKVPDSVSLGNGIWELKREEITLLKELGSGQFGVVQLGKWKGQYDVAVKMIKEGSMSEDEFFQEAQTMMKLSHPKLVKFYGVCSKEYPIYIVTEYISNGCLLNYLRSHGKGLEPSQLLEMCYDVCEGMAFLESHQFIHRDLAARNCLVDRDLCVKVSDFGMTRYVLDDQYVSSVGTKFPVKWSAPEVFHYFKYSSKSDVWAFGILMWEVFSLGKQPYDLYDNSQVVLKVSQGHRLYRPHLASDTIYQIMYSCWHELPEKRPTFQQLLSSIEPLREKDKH
Sequence of CLK3 (P49761 whole entry): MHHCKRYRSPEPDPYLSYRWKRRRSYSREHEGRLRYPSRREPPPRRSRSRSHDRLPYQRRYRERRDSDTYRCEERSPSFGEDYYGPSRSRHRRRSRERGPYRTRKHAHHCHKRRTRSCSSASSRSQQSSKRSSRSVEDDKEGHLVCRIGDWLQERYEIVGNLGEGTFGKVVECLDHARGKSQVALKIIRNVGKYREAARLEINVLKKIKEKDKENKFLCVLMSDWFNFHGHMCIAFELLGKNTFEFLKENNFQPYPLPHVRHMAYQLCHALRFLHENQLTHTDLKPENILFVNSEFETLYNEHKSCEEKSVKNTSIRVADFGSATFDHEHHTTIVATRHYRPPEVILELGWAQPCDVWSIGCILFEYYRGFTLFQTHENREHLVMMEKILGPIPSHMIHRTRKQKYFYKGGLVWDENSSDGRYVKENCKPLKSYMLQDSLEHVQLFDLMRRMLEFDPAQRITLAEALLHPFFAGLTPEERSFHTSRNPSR
Sequence of MYO3B (Q8WXR4 whole entry): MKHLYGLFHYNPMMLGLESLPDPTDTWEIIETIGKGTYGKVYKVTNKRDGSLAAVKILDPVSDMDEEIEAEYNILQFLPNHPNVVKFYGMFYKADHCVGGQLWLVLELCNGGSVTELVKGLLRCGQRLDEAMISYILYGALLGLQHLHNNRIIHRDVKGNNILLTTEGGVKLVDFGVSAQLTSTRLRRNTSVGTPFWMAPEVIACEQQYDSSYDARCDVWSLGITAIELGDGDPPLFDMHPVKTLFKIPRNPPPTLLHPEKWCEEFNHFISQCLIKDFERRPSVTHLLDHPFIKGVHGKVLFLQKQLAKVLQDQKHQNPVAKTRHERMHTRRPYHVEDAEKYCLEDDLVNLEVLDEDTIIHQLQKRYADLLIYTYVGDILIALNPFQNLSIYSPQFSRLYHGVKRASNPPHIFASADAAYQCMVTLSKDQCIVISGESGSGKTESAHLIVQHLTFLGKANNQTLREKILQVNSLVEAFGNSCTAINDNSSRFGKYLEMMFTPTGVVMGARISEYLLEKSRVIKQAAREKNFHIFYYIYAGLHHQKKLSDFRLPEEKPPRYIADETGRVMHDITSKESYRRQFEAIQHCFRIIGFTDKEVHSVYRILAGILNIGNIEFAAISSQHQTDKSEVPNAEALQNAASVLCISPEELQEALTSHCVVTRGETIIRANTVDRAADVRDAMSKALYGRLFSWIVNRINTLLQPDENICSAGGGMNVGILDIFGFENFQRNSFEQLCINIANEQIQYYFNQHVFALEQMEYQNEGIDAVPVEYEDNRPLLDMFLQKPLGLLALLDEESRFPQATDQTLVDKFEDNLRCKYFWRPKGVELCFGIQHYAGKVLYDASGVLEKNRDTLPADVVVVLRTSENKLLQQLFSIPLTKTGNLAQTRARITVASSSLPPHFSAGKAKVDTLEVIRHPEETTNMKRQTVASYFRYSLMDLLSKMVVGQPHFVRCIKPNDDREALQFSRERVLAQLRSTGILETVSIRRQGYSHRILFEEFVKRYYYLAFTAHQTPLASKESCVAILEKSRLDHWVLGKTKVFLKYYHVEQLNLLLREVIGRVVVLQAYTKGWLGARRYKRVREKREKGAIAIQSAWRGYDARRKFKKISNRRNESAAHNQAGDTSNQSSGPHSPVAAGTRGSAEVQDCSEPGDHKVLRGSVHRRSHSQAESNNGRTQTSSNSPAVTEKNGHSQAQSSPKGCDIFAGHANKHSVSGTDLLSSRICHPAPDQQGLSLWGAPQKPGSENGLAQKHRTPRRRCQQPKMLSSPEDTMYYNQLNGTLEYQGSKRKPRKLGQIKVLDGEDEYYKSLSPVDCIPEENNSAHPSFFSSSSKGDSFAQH

## CNS(=O)(=O)c1ccc(N(C)C)c(Nc2ncnc3cc(OC)c(OC)cc23)c1 [compound 7, 3-((6,7-dimethoxyquinazolin-4-yl)amino)-4-(dimethylamino)-N-methylbenzenesulfonamide]
[1]
  inhibition at 1 µM: 0%
[2]
  inhibition at 1 µM: 0%
[3]
  inhibition at 1 µM: 22%
[4]
  inhibition at 1 µM: 0%
[5]
  inhibition at 1 µM: 56%
[6]
  inhibition at 1 µM: 0%
[7]
  inhibition at 1 µM: 33%
[8]
  inhibition at 1 µM: 0%
[9]
  inhibition at 1 µM: 0%
[10]
  inhibition at 1 µM: 0%

## CNS(=O)(=O)c1ccc(N(C)C)c(Nc2nc(C)nc3cc(OC)c(OC)cc23)c1 [compound 15, 3-((6,7-dimethoxy-2-methylquinazolin-4-yl)amino)-4-(dimethylamino)-N-methylbenzenesulfonamide]
[11]
  inhibition at 1 µM: 26%
[12]
  inhibition at 1 µM: 0%
[13]
  inhibition at 1 µM: 0%
[14]
  inhibition at 1 µM: 0%
[15]
  inhibition at 1 µM: 0%
[16]
  inhibition at 1 µM: 4%
[17]
  inhibition at 1 µM: 0%
[18]
  inhibition at 1 µM: 14%
[19]
  inhibition at 1 µM: 18%
[20]
  inhibition at 1 µM: 0%
[21]
  inhibition at 1 µM: 15%
[22]
  inhibition at 1 µM: 25%
[23]
  inhibition at 1 µM: 4%
[24]
  inhibition at 1 µM: 22%
